The values below come from patent US8680159B2, “Bradykinin 1 receptor modulating compounds” (Gruenenthal GmbH, priority 2010, dated 2014).

The first test has as its target T1, B1R receptor of the rat (CHO K1 cells stably transfected with the B1R gene of the rat) (Rattus norvegicus, UniProt P97583).
T1 construct: expressed in transfected cells; host or cells: CHO K1 cells (Chinese hamster ovary), stably transfected
T1 sequence (P97583 1-337): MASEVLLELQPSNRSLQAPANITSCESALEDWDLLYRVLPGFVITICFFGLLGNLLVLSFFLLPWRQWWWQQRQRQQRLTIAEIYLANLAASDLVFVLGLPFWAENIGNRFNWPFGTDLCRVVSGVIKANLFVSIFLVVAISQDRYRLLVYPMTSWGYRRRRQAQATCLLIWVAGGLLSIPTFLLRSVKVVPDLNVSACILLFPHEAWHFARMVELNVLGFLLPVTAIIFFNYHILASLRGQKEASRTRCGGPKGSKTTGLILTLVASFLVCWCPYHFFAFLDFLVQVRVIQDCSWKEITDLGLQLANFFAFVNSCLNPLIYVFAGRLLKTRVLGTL
Put plainly: Functional study on the bradykinin receptor 1 (B1R), Ca2+ fluorescence (Fluo-4) FLIPR/Novostar assay, rB1R cells. In kind it is cell-based. Conditions: CHO-K1, 10 μM, library compounds CC_H, read-out: % Inhibition (r-B1R) at 10 μM. In outline:
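Stably transfected CHO K1 cells carrying human or rat B1R were Fluo-4 loaded and Ca2+ fluorescence read by FLIPR or Novostar. Compounds were added first at 10 μM for % activation, then the EC80 agonist was applied after 6-20 min (human: Lys-Des-Arg9-bradykinin; rat: Des-Arg9-bradykinin). % inhibition is relative to maximum achievable inhibition, and IC50 comes from concentration series.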
The inhibition is the relative decrease from the control value, in per cent. In the case of `CN(C)C(=O)c1cc(N2CCC(N(C)C(=O)c3ccc4c(c3)C(NC(=O)CCC3CCCC3)CC4)CC2)ccn1` (stereo not shown) [CC_H-615, 4-[4-[[3-(3-Cyclopentyl-propanoylamino)-2,3-dihydro-1H-inden-5-carbonyl]-methyl-amino]-piperidin-1-yl]-N,N-dimethyl-pyridine-2-carboxylic acid amide], the inhibition at 10 µM is 65%.

The test is the same for the next values; noted with them: CHO-K1, 10 μM, read-out: % Inhibition (r-B1R) at 10 μM.
Take `Cc1cc(N2CCC(N(C)C(=O)c3ccc4c(c3)C(N(C)S(=O)(=O)Cc3cccc(C(F)(F)F)c3)CC4)CC2)cc(C)n1` (stereo not shown) [CC_H-355, N-[1-(2,6-Dimethyl-pyridin-4-yl)-piperidin-4-yl]-N-methyl-3-[methyl-[[3-(trifluoromethyl)phenyl]-methylsulfonyl]-amino]-2,3-dihydro-1H-indene-5-carboxylic acid amide]: the inhibition at 10 µM turned out to be 96%.
As for `CN(C(=O)c1ccc2c(c1)C(NC(=O)Nc1ccc(F)c(Cl)c1)CCC2)C1CCN(c2ccncc2)CC1` (stereo not shown) [CC_H-265, 8-[[(3-Chloro-4-fluoro-phenyl)-carbamoyl]amino]-N-methyl-N-(1-pyridin-4-yl-piperidin-4-yl)-5,6,7,8-tetrahydro-naphthalene-2-carboxylic acid amide], the inhibition at 10 µM stood at 105%.
On the same count and under the same terms, then `Cc1ccc(F)c(C(=O)NC2CCCc3ccc(C(=O)N(C)C4CCN(c5ccncc5)CC4)cc32)c1Cl` (stereo not shown) [CC_H-248, 8-[(2-Chloro-6-fluoro-3-methyl-benzoyl)amino]-N-methyl-N-(1-pyridin-4-yl-piperidin-4-yl)-5,6,7,8-tetrahydro-naphthalene-2-carboxylic acid amide], with 111%.
For `Cc1cc(N2CCC(N(C)C(=O)c3ccc4c(c3)C(NC(=O)Nc3c(Cl)cccc3Cl)CC4)CC2)cc(C)n1` (stereo not shown) [CC_H-306, 3-[[(2,6-Dichloro-phenyl)-carbamoyl]amino]-N-[1-(2,6-dimethyl-pyridin-4-yl)-piperidin-4-yl]-N-methyl-2,3-dihydro-1H-indene-5-carboxylic acid amide], the inhibition at 10 µM was found to be 107%.
The same measure, in the same setting: then `CN(C(=O)c1ccc2c(c1)C(NC(=O)c1cccc(C(F)(F)F)c1Cl)CCC2)C1CCN(c2ccncc2)CC1` (stereo not shown) [CC_H-254, 8-[[2-Chloro-3-(trifluoromethyl)-benzoyl]amino]-N-methyl-N-(1-pyridin-4-yl-piperidin-4-yl)-5,6,7,8-tetrahydro-naphthalene-2-carboxylic acid amide], with 111%.
The same measure, in the same setting: with `Cc1cc(N2CCC(N(C)C(=O)c3ccc4c(c3)C(N(C)C(=O)Nc3cc(C(F)(F)F)ccc3Cl)CC4)CC2)cc(C)n1` (stereo not shown) [CC_H-343, 3-[[[2-Chloro-5-(trifluoromethyl)-phenyl]-carbamoyl]-methyl-amino]-N-[1-(2,6-dimethyl-pyridin-4-yl)-piperidin-4-yl]-N-methyl-2,3-dihydro-1H-indene-5-carboxylic acid amide] the figure was 67%.
For the molecule `CN(C(=O)c1ccc2c(c1)C(NC(=O)CC(C)(C)C)CC2)C1CCN(c2ccncc2)CC1` (stereo not shown) [CC_H-206, 3-(3,3-Dimethyl-butanoylamino)-N-methyl-N-(1-pyridin-4-yl-piperidin-4-yl)-2,3-dihydro-1H-indene-5-carboxylic acid amide], the inhibition at 10 µM was 109%.
Still for that read-out and setting: then `Cc1cc(N2CCC(N(C)C(=O)c3ccc4c(c3)C(NC(=O)C3CCCCC3)CC4)CC2)cc(C)n1` (stereo not shown) [CC_H-297, 3-(Cyclohexanecarbonylamino)-N-[1-(2,6-dimethyl-pyridin-4-yl)-piperidin-4-yl]-N-methyl-2,3-dihydro-1H-indene-5-carboxylic acid amide], with 110%; and `Cc1cc(N2CCC(N(C)C(=O)c3ccc4c(c3)C(NC(=O)Nc3ccccc3Cl)CC4)CC2)cc(C)n1` (stereo not shown) [CC_H-304, 3-[[(2-Chlorophenyl)-carbamoyl]amino]-N-[1-(2,6-dimethyl-pyridin-4-yl)-piperidin-4-yl]-N-methyl-2,3-dihydro-1H-indene-5-carboxylic acid amide], with 98%.
